Laboratory results: US20230382863A1, “MEK INHIBITORS AND USES THEREOF” (Ikena Oncology, Inc., priority 2022, published 2023)

What was measured:
[1] = test system: Phosphorylation of ERK1/2 in AsPC1 cells; assay: 4 hour pERK1/2 HTRF Assay; format: cell-based; conditions: Homo sapiens, ASPC1, read-out: pERK AsPC-1 HTRF (4 hour): Average IC50 (nM); AsPC-1, 4 hour
Method: AsPC1 cells were seeded at 20,000 cells/well overnight in 96-well plates, then treated with a 12-point dose response of compounds (Starting dose of 3000 nM and 3-fold dilution) for 4 hours. AsPC1 cells are a K-Ras mutant cell line. Phosphorylation of ERK1/2 on residues Thr202 and Tyr204 were detected using a Homogenous Time-Resolved Fluorescence (HTRF) assay (Cisbio Cat #64ERKPEG). Briefly, ERK phosphorylation was detected using a sandwich assay format using two phospho-ERK specific antibodies, one labelled with EU^3+-Cryptate (donor) and the second with d2 (acceptor). The Fluorescence Resonance Energy Transfer (FRET) towards the d2 acceptor was detected at a wavelength of 665 nm. ERK1/2 phosphorylation levels were normalized to total ERK1/2 protein levels in each well. IC50 values were determined by fitting a variable slope, four parameters curve to the compound concentration to normalized Phospho-ERK1/2 relationship.

uMEK/BRAF = uMEK/BRAF (Homo sapiens (Human), UniProt Q02750); assay: MEK-RAF Binding Assay (uMEK/BRAF HTRF)
pERK HCT-116 (G13D) = pERK HCT-116 (G13D) ICW (4 hour); format: cell-based; conditions: Homo sapiens, read-out: pERK HCT-116 (G13D) ICW (4 hour): Average IC50 (nM)
[2] = Cassette pharmacokinetics studies in mice; format: in vivo; conditions: male, Balb/c, plasma; Mouse, PO, 5 mg/kg
Method: Pharmacokinetics studies were conducted using cassette dosing protocols, with test compounds administered per mouse. Treatment groups were 3 mice (˜6-8 weeks old, ˜20-30 g Balb/c male mice) per route of administration. Compounds were formulated in 5% DMSO and 95% PEG400 with final concentrations of 0.5 mg/mL for IV and PO dosing. Compounds were dosed at 2 mg/kg for IV dosing and 5 mg/kg for PO dosing. Blood samples were withdrawn at 0.083, 0.25, 0.5, 1.0, 2.0, 4.0, 6.0, 8.0, and 24 hours following IV dosing, and 0.25, 0.5, 1.0, 2.0, 4.0, 6.0, 8.0, and 24 hours following PO dosing. Blood samples were centrifuged at 4,000 g for 5 minutes at 4° C. to obtain plasma samples. Plasma samples were diluted with acetonitrile containing internal standard, vortexed for 30 seconds, then centrifuged at 4,000 rpm for 15 minutes at 4° C. The supernatant was diluted with water, and compound concentration was determined by HPLC/MS/MS compared to calibration standards of 0.5-1,000 ng/mL.
Where route is listed as “IV*”, the compound was dosed IV at 1 mg/kg.

| IC50 [1] [nM] | Molecule | also measured |
| --- | --- | --- |
| < 100 | CNS(=O)(=O)Nc1ccnc(Oc2c(C(=O)NC3CC3)c(Nc3ccc(I)cc3F)n(C)c(=O)c2C)c1OC [Compound I-115] |  |
| < 100 | CNS(=O)(=O)Nc1nccc(Oc2c(C(=O)NC3CC3)c(Nc3ccc(I)cc3F)n(C)c(=O)c2C)c1Cl [Compound I-121] |  |
| 100 to 1000 | CCN(c1cccc(Oc2c(C(=O)NC3CC3)c(Nc3ccc(I)cc3F)n(C)c(=O)c2C)c1Cl)S(=O)(=O)NC1CC1 [Compound I-98] |  |
| < 100 | CNS(=O)(=O)Nc1cccc(Nc2c(C(=O)OC3CC3)c(Nc3ccc(I)cc3F)n(C)c(=O)c2C)c1Cl [Compound I-47] |  |
| < 100 | Cc1c(Oc2cccc(N(C)S(=O)(=O)NC3CC3)c2Cl)c(C(=O)NC2CC2)c(Nc2ccc(I)cc2F)n(C)c1=O [Compound I-99] |  |
| < 100 | CCN(C1CC1)S(=O)(=O)Nc1cccc(Oc2c(C(=O)NC3CC3)c(Nc3ccc(I)cc3F)n(C)c(=O)c2C)c1Cl [Compound I-101] |  |
| < 100 | CNS(=O)(=O)N(C)c1cccc(Oc2c(C(=O)NC3CC3)c(Nc3ccc(I)cc3F)n(C)c(=O)c2C)c1Cl [Compound I-100] |  |
|  | CNS(=O)(=O)Nc1ccc(OC)c(Oc2c(C(=O)NC3CC3)c(Nc3ccc(I)cc3F)n(C)c(=O)c2C)c1 [Compound I-26] | IC50 (uMEK/BRAF): 1000 to 10000 nM; IC50 (pERK HCT-116 (G13D)): 1000 to 10000 nM |
|  | CNS(=O)(=O)Nc1cccc(Oc2c(C(=O)NC3CC3)c(Nc3ccc(I)cc3F)n(C)c(=O)c2C)c1C [Compound I-3] | IC50 (uMEK/BRAF): < 100 nM; IC50 (pERK HCT-116 (G13D)): < 100 nM |
|  | Cc1c(Nc2ccc3c(c2)CNS(=O)(=O)N3)c(C(=O)NC2CC2)c(Nc2ccc(I)cc2F)n(C)c1=O [Compound I-62] | IC50 (uMEK/BRAF): < 100 nM; IC50 (pERK HCT-116 (G13D)): < 100 nM |
| < 100 | Cc1c(Oc2cccc(NS(=O)(=O)N(C)C3CC3)c2Cl)c(C(=O)NC2CC2)c(Nc2ccc(I)cc2F)n(C)c1=O [Compound I-102] |  |
| < 100 | CCN(CC)S(=O)(=O)Nc1cccc(Oc2c(C(=O)NC3CC3)c(Nc3ccc(I)cc3F)n(C)c(=O)c2C)c1Cl [Compound I-110] |  |
| < 100 | Cc1c(Oc2cccc(NS(=O)(=O)N3CCC3)c2Cl)c(C(=O)NCC(F)(F)F)c(Nc2ccc(I)cc2F)n(C)c1=O [Compound I-106] |  |
|  | CNS(=O)(=O)Nc1cccc(Oc2c(C(=O)NC3CC3)c(Nc3ccc(I)cc3F)n(C)c(=O)c2C)c1C(F)(F)F [Compound I-37] | AUC(0-inf) [2]: 12900 ng·h/mL; AUC(0-t) [2]: 12900 ng·h/mL; Cmax [2]: 1730 ng/mL; Tmax [2]: 1.7 h; half-life [2]: 1.99 h |
| < 100 | CCN(C)S(=O)(=O)Nc1cccc(Oc2c(C(=O)NC3CC3)c(Nc3ccc(I)cc3F)n(C)c(=O)c2C)c1Cl [Compound I-111] |  |
|  | CNS(=O)(=O)Nc1cc(OC)cc(Oc2c(C(=O)NC3CC3)c(Nc3ccc(I)cc3F)n(C)c(=O)c2C)c1 [Compound I-25] | IC50 (uMEK/BRAF): 1000 to 10000 nM; IC50 (pERK HCT-116 (G13D)): 1000 to 10000 nM |
|  | CNS(=O)(=O)Nc1cc(Oc2c(C(=O)NC3CC3)c(Nc3ccc(I)cc3F)n(C)c(=O)c2C)ccc1Cl [Compound I-19] | IC50 (uMEK/BRAF): 100 to 1000 nM |
| 100 to 1000 | Cc1c(Oc2cccc(N(C3CC3)S(=O)(=O)NC3CC3)c2Cl)c(C(=O)NC2CC2)c(Nc2ccc(I)cc2F)n(C)c1=O [Compound I-94] |  |
| < 100 | CNS(=O)(=O)Nc1c(F)ccc(Oc2c(C(=O)NC3CC3)c(Nc3ccc(I)cc3F)n(C)c(=O)c2C)c1Cl [Compound I-38] | IC50 (uMEK/BRAF): < 100 nM |
| < 100 | Cc1c(Oc2cccc(NS(=O)(=O)N3CC(F)C3)c2Cl)c(C(=O)NC2CC2)c(Nc2ccc(I)cc2F)n(C)c1=O [Compound I-107] |  |
| 1000 to 10000 | CNS(=O)(=O)Nc1cncc(Oc2c(C(=O)NC3CC3)c(Nc3ccc(I)cc3F)n(C)c(=O)c2C)c1OC [Compound I-116] |  |
| < 100 | Cc1c(Oc2cccc(NS(=O)(=O)N3CCC3)c2Cl)c(C(=O)NC2CC2)c(Nc2ccc(I)cc2F)n(C)c1=O [Compound I-108] |  |
| < 100 | Cc1c(Oc2cccc(NS(=O)(=O)N(C)C)c2Cl)c(C(=O)NCC(F)(F)F)c(Nc2ccc(I)cc2F)n(C)c1=O [Compound I-105] |  |
| 100 to 1000 | CNS(=O)(=O)N(CC(F)(F)F)c1cccc(Oc2c(C(=O)NC3CC3)c(Nc3ccc(I)cc3F)n(C)c(=O)c2C)c1Cl [Compound I-97] |  |

| IC50 [1] [nM] | Molecule | also measured |
| --- | --- | --- |
|  | N-cyclopropyl-4-((2,2-dioxido-3,4-dihydro-1H-benzo[c][1,2,6]thiadiazin-7-yl)oxy)-2-((2-fluoro-4-iodophenyl)amino)-1,5-dimethyl-6-oxo-1,6-dihydropyridine-3-carboxamide [Compound I-14] | IC50 (uMEK/BRAF): 100 to 1000 nM |
| < 100 | CNS(=O)(=O)Nc1ccnc(Oc2c(C(=O)NC3CC3)c(Nc3ccc(I)cc3F)n(C)c(=O)c2C)c1Cl [Compound I-93] |  |
| 100 to 1000 | CCc1c(Oc2cccc(NS(=O)(=O)NC)c2Cl)c(C(=O)NC2CC2)c(Nc2ccc(I)cc2F)n(C)c1=O [Compound I-92] |  |
| < 100 | Cc1c(Oc2cccc(NS(N)(=O)=O)c2Cl)c(C(=O)NC2CC2)c(Nc2ccc(I)cc2F)n(C)c1=O [Compound I-112] | AUC(0-inf) [2]: 5830 ng·h/mL; AUC(0-t) [2]: 5370 ng·h/mL; Cmax [2]: 979 ng/mL; Tmax [2]: 1.3 h; half-life [2]: 2.27 h |
| 1000 to 10000 | CNS(=O)(=O)n1ccc2ccc(Oc3c(C(=O)NC4CC4)c(Nc4ccc(I)cc4F)n(C)c(=O)c3C)cc21 [Compound I-78] | IC50 (uMEK/BRAF): 100 to 1000 nM |
|  | CNS(=O)(=O)Nc1cccc(Oc2c(C(=O)N(C)C3CCC3)c(Nc3ccc(I)cc3F)n(C)c(=O)c2C)c1 [Compound I-133] | AUC(0-inf) [2]: 28 ng·h/mL; AUC(0-t) [2]: 27 ng·h/mL; Cmax [2]: 41.2 ng/mL; Tmax [2]: 0.2 h; half-life [2]: 0.4 h |
| < 100 | Cc1c(Oc2cccc(NS(=O)(=O)N3CC(F)C3)c2Cl)c(C(=O)NCC(F)(F)F)c(Nc2ccc(I)cc2F)n(C)c1=O [Compound I-104] |  |
| < 100 | CNS(=O)(=O)Nc1cccc(Oc2c(C(=O)NCC[C@@H](O)CO)c(Nc3ccc(I)cc3F)n(C)c(=O)c2C)c1Cl [Compound I-119] |  |
| 1000 to 10000 | CCn1c(Nc2ccc(I)cc2F)c(C(=O)NC2CC2)c(Oc2cccc(NS(=O)(=O)NC)c2Cl)c(C2CC2)c1=O [Compound I-117] |  |
| < 100 | Cc1c(Oc2cccc(NS(=O)(=O)N3CCC3)c2C(F)(F)F)c(C(=O)NC2CC2)c(Nc2ccc(I)cc2F)n(C)c1=O [Compound I-103] |  |
| 100 to 1000 | CNS(=O)(=O)Nc1ccc(Oc2c(C(=O)NC3CC3)c(Nc3ccc(I)cc3F)n(C)c(=O)c2C)cc1 [Compound I-64] | IC50 (uMEK/BRAF): 100 to 1000 nM; AUC(0-inf) [2]: 505 ng·h/mL; AUC(0-t) [2]: 492 ng·h/mL; Cmax [2]: 231 ng/mL; Tmax [2]: 0.8 h; half-life [2]: 2.1 h |
| 100 to 1000 | CNS(=O)(=O)Nc1cccc(Oc2c(C(=O)NC3CC3)c(Nc3ccc(I)cc3F)n(C)c(=O)c2C)n1 [Compound I-96] |  |
| 1000 to 10000 | CCc1c(Oc2cccc(NS(=O)(=O)NC)c2Cl)c(C(=O)NC2CC2)c(Nc2ccc(I)cc2F)n(C2CC2)c1=O [Compound I-120] |  |
| < 100 | Cc1c(Oc2cccc(N(CC(F)(F)F)S(=O)(=O)NC3CC3)c2Cl)c(C(=O)NC2CC2)c(Nc2ccc(I)cc2F)n(C)c1=O [Compound I-95] |  |
| < 100 | Cc1c(Oc2cccc(NS(=O)(=O)N(C)C)c2Cl)c(C(=O)NC2CC2)c(Nc2ccc(I)cc2F)n(C)c1=O [Compound I-113] |  |
| 100 to 1000 | CNS(=O)(=O)Nc1ccc(Oc2c(C(=O)NC3CC3)c(Nc3ccc(I)cc3F)n(C)c(=O)c2C)c(Cl)c1 [Compound I-63] | IC50 (uMEK/BRAF): 100 to 1000 nM |
| < 100 | CNS(=O)(=O)Nc1cccc(Oc2c(C(=O)NCC3CC3)c(Nc3ccc(I)cc3F)n(C)c(=O)c2C)c1Cl [Compound I-39] | IC50 (uMEK/BRAF): < 100 nM |
| < 100 | Cc1c(Oc2cccc(N)c2Cl)c(C(=O)NC2CC2)c(Nc2ccc(I)cc2F)n(C)c1=O [Compound I-86] | IC50 (uMEK/BRAF): < 100 nM |
| < 100 | CNS(=O)(=O)Nc1cccc(Oc2c(C(=O)NC3CC3)c(Nc3ccc(I)cc3F)n(C)c(=O)c2C)c1Cl [Compound I-109] |  |
| < 100 | CNS(=O)(=O)Nc1cccc(Oc2c(C(=O)NCC[C@H](O)CO)c(Nc3ccc(I)cc3F)n(C)c(=O)c2C)c1Cl [Compound I-118] |  |
|  | CNS(=O)(=O)Nc1cc(C)cc(Oc2c(C(=O)NC3CC3)c(Nc3ccc(I)cc3F)n(C)c(=O)c2C)c1 [Compound I-21] | IC50 (uMEK/BRAF): 100 to 1000 nM |
| < 100 | CNS(=O)(=O)Nc1cccc(Oc2c(C(=O)N3CCC3)c(Nc3ccc(I)cc3F)n(C)c(=O)c2C)c1Cl [Compound I-79] | IC50 (uMEK/BRAF): 100 to 1000 nM |
| 100 to 1000 | CNS(=O)(=O)Nc1cncc(Oc2c(C(=O)NC3CC3)c(Nc3ccc(I)cc3F)n(C)c(=O)c2C)c1Cl [Compound I-122] |  |
